Experiments:
[1] = tested on: LPS induced IL-6 secretion from whole blood; assay: Measurement of LPS Induced IL-6 Secretion from Whole Blood; format: cell-based; settings: LPS 200 ng/ml, 24 hours, immunoassay, read-out: pIC50 (IL-6 levels) (converted)
Procedure: Activation of monocytic cells by agonists of toll-like receptors such as bacterial lipopolysaccharide (LPS) results in production of key inflammatory mediators including IL-6. Such pathways are widely considered to be central to the pathophysiology of a range of auto-immune and inflammatory disorders.
After further incubation for 24 hours at 37 degrees, 140 ul of PBS are added to each well. The plates are sealed, shaken for 10 minutes and then centrifuged (2500 rpm×10 min). 100 ul of the supernatant are removed and IL-6 levels assayed by immunoassay (typically by MesoScale Discovery technology) either immediately or following storage at −20 degrees.

| Compound | melting point | IC50 [1] |
| --- | --- | --- |
| Cc1nnc2n1-c1ccc(O)cc1C(c1ccc(Cl)cc1)=N[C@H]2CC(=O)Nc1ccc(F)cc1 | 222 °C (dec.) | – |
| COc1ccc2c(c1)C(c1ccc(Cl)cc1)=N[C@@H](CC(=O)NC1CCCCC1)c1nnc(C)n1-2 (stereo in doubt) | > 260 °C | – |
| COc1ccc2c(c1)C(c1ccc(Cl)cc1)=N[C@@H](CC(=O)Nc1ccccc1F)c1nnc(C)n1-2 [Example 9, 2-[(4S)-6-(4-chlorophenyl)-1-methyl-8-(methyloxy)-4H-[1,2,4]triazolo[4,3-a][1,4]benzodiazepin-4-yl]-N-(2-fluorophenyl)acetamide] | 264 °C | ≤ 10 µM |
| COc1ccc2c(c1)C(c1ccc(Cl)cc1)=N[C@@H](CC(=O)Nc1cccc(F)c1)c1nnc(C)n1-2 [Example 10, 2-[(4S)-6-(4-chlorophenyl)-1-methyl-8-(methyloxy)-4H-[1,2,4]triazolo[4,3-a][1,4]benzodiazepin-4-yl]-N-(3-fluorophenyl)acetamide] | 248 °C | ≤ 10 µM |
| COc1ccc2c(c1)C(c1ccc(Cl)cc1)=N[C@@H](CC(=O)Nc1ccncc1)c1nnc(C)n1-2 [Example 14, 2-[(4S)-6-(4-chlorophenyl)-1-methyl-8-(methyloxy)-4H-[1,2,4]triazolo[4,3-a][1,4]benzodiazepin-4-yl]-N-4-pyridinylacetamide] | 223 °C | – |
| COc1ccc2c(c1)C(c1ccc(Cl)cc1)=N[C@@H](CC(=O)Nc1nccs1)c1nnc(C)n1-2 [Example 15, 2-[(4S)-6-(4-chlorophenyl)-1-methyl-8-(methyloxy)-4H-[1,2,4]triazolo[4,3-a][1,4]benzodiazepin-4-yl]-N-1,3-thiazol-2-ylacetamide] | 249 °C | ≤ 10 µM |

— patent US9598420B2, “Benzodiazepine bromodomain inhibitor” (GlaxoSmithKline LLC, priority 2009, dated 2017)
